This assay has as its target ATP-binding cassette sub-family C member 2 (Rattus norvegicus, UniProt Q63120). Put plainly: TP_TRANSPORTER: inhibition of DNP-SG uptake in bile canalicular membrane vesicles from SD rat. In kind it is functional, cell membranes, Sprague-Dawley, Bile canalicular membrane vesicle.
Chain of ATP-binding cassette sub-family C member 2 (Q63120 whole entry): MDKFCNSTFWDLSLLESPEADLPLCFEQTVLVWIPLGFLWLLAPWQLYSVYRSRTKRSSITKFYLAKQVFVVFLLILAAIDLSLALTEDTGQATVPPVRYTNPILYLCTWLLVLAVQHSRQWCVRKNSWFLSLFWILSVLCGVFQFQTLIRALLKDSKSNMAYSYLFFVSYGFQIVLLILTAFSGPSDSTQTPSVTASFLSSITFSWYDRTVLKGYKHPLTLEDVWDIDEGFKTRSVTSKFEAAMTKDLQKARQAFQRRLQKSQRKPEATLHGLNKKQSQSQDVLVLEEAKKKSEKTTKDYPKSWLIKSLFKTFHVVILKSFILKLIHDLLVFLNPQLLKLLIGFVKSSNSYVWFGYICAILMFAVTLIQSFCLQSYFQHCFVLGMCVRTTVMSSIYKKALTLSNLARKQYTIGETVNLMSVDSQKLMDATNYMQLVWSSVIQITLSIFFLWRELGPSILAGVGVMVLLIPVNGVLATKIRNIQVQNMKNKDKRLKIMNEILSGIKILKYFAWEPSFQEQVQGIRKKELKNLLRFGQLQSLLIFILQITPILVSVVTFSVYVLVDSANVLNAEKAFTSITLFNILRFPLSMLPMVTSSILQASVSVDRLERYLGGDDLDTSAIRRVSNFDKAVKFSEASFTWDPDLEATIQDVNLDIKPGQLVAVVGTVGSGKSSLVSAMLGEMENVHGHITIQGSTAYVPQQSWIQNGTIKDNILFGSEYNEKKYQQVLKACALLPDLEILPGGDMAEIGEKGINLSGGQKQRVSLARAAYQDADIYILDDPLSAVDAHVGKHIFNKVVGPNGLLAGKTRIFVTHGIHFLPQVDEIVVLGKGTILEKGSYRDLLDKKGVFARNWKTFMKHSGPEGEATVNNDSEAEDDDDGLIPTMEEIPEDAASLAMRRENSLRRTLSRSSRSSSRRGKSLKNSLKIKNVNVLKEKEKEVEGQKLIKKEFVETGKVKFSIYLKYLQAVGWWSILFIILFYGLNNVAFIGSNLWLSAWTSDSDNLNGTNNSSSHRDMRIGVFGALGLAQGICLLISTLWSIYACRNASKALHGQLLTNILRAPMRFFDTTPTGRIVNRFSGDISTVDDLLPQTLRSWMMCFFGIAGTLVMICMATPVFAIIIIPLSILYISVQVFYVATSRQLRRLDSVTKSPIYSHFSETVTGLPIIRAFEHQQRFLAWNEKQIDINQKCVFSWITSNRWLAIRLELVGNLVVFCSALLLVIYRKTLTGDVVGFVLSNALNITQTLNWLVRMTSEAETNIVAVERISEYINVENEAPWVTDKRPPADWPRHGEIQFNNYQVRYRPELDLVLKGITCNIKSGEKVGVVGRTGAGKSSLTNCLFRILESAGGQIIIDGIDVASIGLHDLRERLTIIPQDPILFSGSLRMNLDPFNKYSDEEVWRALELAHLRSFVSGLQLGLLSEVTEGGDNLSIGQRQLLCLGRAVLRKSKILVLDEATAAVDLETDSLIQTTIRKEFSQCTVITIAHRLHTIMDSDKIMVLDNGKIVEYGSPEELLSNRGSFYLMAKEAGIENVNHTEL
As to `CCC(C)C(NC(=O)c1ccc(N(C)Cc2cnc3nc(N)nc(N)c3n2)cc1)C(=O)O` (stereo not given), the affinity corresponds to a Ki of 56.9 µM.

`CC(C)N(Cc1cnc2nc(N)nc(N)c2n1)c1ccc(C(=O)N2C[C@H](O)C[C@H]2C(=O)O)cc1`: the Ki (commonly a dissociation constant, usually derived from enzyme kinetics or from competition with a known ligand) was 784 µM. This Ki is about 14-fold higher than that of the molecule before. As for `CN(Cc1cnc2nc(N)nc(N)c2n1)c1ccc(C(=O)NC(CCC(=O)NC(CCC(=O)NC(CCC(=O)NC(CCC(=O)N[C@@H](CCC(=O)O)C(=O)O)C(=O)O)C(=O)O)C(=O)O)C(=O)O)cc1` (stereo not given in full), the inhibition constant (Ki) was 501 µM. Under `Nc1nc(N)c2nc(CN3CCOc4cc(C(=O)NC(CCC(=O)O)C(=O)O)ccc43)cnc2n1` (stereo not given) stands 311 µM. In turn, `CC(C)N(Cc1cnc2nc(N)nc(N)c2n1)c1ccc(C(=O)NC(CCC(=O)O)C(=O)O)cc1` (stereo not given) [ISOAMINOPTERIN] came in with a Ki of 173 µM. As for `CN(Cc1cnc2nc(N)nc(N)c2n1)c1ccc(C(=O)N2C[C@H](O)C[C@H]2C(=O)O)cc1`, the Ki is over 1000 µM.

The molecule `CN(Cc1cnc2nc(N)nc(N)c2n1)c1ccc(C(=O)N[C@@H](CCC(=O)O)C(=O)O)cc1` [METHOTREXATE] showed a Ki of 462 µM.

For `Cc1cc(C(=O)NC(CCC(=O)O)C(=O)O)cc2c1N(Cc1cnc3nc(N)nc(N)c3n1)CC2` (stereo not given), the affinity corresponds to a Ki of 173 µM. The value for `CCCN(Cc1cnc2nc(N)nc(N)c2n1)c1ccc(C(=O)NC(CCC(=O)O)C(=O)O)cc1` (stereo not given) was 154 µM.

The molecule `Nc1nc(N)c2nc(CN3CCSc4cc(C(=O)N[C@@H](CCCC(=O)N[C@@H](CCC(=O)O)C(=O)O)C(=O)O)ccc43)cnc2n1` returned a Ki of 223 µM. The value for `CC(C)CC(NC(=O)c1ccc(N(C)Cc2cnc3nc(N)nc(N)c3n2)cc1)C(=O)O` (stereo not given) was 308 µM; that for `Cc1cc(C(=O)NC(CCC(=O)O)C(=O)O)cc(C)c1N(C)Cc1cnc2nc(N)nc(N)c2n1` (stereo not given) was 39.2 µM; that for `Cc1cc(C(=O)NC(CCCC(=O)O)C(=O)O)ccc1N(C)Cc1cnc2nc(N)nc(N)c2n1` (stereo not given) was 133 µM. The value for `CCN(Cc1cnc2nc(N)nc(N)c2n1)c1ccc(C(=O)NC(CCCNC(=O)c2ccccc2)C(=O)O)cc1` (stereo not given) was 32.5 µM; that for `CN(Cc1cnc2nc(N)nc(N)c2n1)c1ccc(C(=O)NC(CCC(=O)NC(CCC(=O)N[C@@H](CCC(=O)O)C(=O)O)C(=O)O)C(=O)O)cc1` (stereo not given in full) was 838 µM. Under `Cc1cc(C(=O)NC(CCC(=O)O)C(=O)O)ccc1NCc1cnc2nc(N)nc(N)c2n1` (stereo not given) stands 382 µM; under `CCN(Cc1cnc2nc(N)nc(N)c2n1)c1ccc(C(=O)NC(CCC(=O)O)C(=O)O)cc1C` (stereo not given), 98.3 µM. Regarding `CC(C)N(Cc1cnc2nc(N)nc(N)c2n1)c1ccc(C(=O)NC(CCCNC(=O)c2ccccc2)C(=O)O)cc1` (stereo not given), the Ki is 14.8 µM. Under `CCCN(Cc1cnc2nc(N)nc(N)c2n1)c1ccc(C(=O)NC(CCCNC(=O)c2ccccc2)C(=O)O)cc1` (stereo not given) stands 11.4 µM; under `Cc1cc(C(=O)NC(CCC(=O)O)C(=O)O)ccc1N(C)Cc1cnc2nc(N)nc(N)c2n1` (stereo not given), 150 µM. As to `Nc1nc(N)c2nc(CN3CCSc4cc(C(=O)NC(CCC(=O)O)C(=O)O)ccc43)cnc2n1` (stereo not given), the Ki turned out to be 137 µM. This Ki and that of the molecule before are within 1.5-fold of each other.

For the molecule `Nc1nc(N)c2nc(CN3CCSc4cc(C(=O)NC(CCCC(=O)O)C(=O)O)ccc43)cnc2n1` (stereo not given), the Ki was 159 µM. The Ki values of the last two molecules are within 1.5-fold of each other. Under `C=CCN(Cc1cnc2nc(N)nc(N)c2n1)c1ccc(C(=O)NC(CCC(=O)O)C(=O)O)cc1` (stereo not given) stands 136 µM; under `Nc1nc(N)c2nc(CN3CCOc4cc(C(=O)NC(CCCC(=O)O)C(=O)O)ccc43)cnc2n1` (stereo not given), 204 µM; under `CN(Cc1cnc2nc(N)nc(N)c2n1)c1ccc(C(=O)NC(CCCNC(=O)c2ccccc2)C(=O)O)cc1` (stereo not given), 48.7 µM.

The values are drawn from ChEMBL document CHEMBL2074531, “Physicochemical parameters responsible for the affinity of methotrexate analogs for rat canalicular multispecific organic anion transporter (cMOAT/MRP2)” (Pharm Res, 2001).
